Assays:
[1] = target: Hepatocyte growth factor receptor (Homo sapiens, UniProt P08581); experiment: Inhibition of c-Met phosphorylation in human […] cells after 1 hr by western blotting; type: cell-based
[2] = Cmax in BALB/c mouse at 20 mg/kg, po; type: ADME, organism-based; parameters: dose 20 mg/kg, route oral; conditions: in vivo
[3] = target: T1, ALK tyrosine kinase receptor (Homo sapiens, UniProt Q9UM73); type: cell-based
Target sequence in this assay (Q9UM73 19-1620 limits assumed): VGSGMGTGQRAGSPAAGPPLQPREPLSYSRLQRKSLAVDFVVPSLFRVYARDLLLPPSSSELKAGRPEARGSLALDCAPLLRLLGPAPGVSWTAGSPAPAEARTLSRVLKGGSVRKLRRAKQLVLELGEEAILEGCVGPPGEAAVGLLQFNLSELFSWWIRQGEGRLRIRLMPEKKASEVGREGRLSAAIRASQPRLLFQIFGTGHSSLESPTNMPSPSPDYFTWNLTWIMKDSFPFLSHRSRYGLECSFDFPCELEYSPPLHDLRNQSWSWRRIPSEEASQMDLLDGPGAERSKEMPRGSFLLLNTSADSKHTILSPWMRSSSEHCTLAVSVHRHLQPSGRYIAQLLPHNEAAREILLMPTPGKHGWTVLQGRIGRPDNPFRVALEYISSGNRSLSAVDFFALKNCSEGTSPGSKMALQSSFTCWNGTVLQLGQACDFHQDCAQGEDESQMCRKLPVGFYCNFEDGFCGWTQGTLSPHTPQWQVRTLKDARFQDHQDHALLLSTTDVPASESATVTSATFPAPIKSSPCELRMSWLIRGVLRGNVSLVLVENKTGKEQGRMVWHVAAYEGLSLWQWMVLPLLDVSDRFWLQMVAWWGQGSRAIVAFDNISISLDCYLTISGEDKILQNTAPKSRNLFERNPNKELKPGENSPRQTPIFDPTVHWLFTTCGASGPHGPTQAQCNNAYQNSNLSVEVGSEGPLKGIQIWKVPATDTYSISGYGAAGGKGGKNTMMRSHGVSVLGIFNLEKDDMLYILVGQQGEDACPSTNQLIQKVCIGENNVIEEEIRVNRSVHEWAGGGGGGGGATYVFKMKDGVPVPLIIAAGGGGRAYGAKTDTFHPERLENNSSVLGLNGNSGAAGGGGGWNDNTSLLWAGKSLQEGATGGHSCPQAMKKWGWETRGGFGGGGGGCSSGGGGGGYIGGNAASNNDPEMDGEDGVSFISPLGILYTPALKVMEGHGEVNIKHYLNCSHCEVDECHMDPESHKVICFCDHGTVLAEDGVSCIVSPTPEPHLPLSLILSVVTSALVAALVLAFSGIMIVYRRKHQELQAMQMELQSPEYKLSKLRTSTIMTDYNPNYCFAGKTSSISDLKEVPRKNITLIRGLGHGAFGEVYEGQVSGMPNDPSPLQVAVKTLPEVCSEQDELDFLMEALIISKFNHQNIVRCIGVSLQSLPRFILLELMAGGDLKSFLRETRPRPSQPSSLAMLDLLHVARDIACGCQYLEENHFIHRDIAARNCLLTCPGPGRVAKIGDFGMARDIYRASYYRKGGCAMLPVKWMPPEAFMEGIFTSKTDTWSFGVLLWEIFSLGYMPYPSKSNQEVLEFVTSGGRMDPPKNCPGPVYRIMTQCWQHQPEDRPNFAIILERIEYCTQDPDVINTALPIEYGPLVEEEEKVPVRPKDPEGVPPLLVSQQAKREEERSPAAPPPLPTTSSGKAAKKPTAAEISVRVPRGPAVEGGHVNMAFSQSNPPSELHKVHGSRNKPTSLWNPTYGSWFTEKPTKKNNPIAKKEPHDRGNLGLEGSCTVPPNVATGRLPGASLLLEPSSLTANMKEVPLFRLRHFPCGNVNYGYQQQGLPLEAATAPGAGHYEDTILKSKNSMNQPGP
Description: Inhibition of NPM-fused ALK phosphorylation (unknown origin) expressed in human karpas 299 cells after 90 mins by Sandwich-ELISA

[4] = AUC (0 to infinity) in BALB/c mouse at 5 mg/kg, iv; type: ADME, organism-based; parameters: time infinity, dose 5 mg/kg, route intravenous; conditions: plasma
[5] = cells; conditions: Homo sapiens, U-87 MG, 48 h
Description: Antiproliferative activity against human U87MG cells after 48 hrs by MTT assay

[6] = cells; conditions: Homo sapiens, GTL 16, 48 h
Description: Antiproliferative activity against human GTL16 cells after 48 hrs by MTT assay

[7] = system: NCI-H1993; experiment: cells; conditions: Homo sapiens, NCI-H1993, 48 h
Description: Antiproliferative activity against human NCI-H1993 cells after 48 hrs by MTT assay

[8] = system: Mus musculus; experiment: Bioavailability in BALB/c mouse at 5 mg/kg, iv; type: ADME, organism-based; conditions: in vivo
[9] = animal or person; conditions: Homo sapiens, GTL 16, po, 336 h, read-out: TGI
Description: Antitumor activity against human GTL16 cells xenografted in nu/nu mouse assessed as tumor growth inhibition at 40 mg/kg, po qd for 14 days

[10] = target: T1, ALK tyrosine kinase receptor; experiment: Inhibition of human ALK (unknown origin) using poly[Glu:Tyr] as substrate by nanoliter kinase assay
Target sequence in this assay (Q9UM73 whole entry): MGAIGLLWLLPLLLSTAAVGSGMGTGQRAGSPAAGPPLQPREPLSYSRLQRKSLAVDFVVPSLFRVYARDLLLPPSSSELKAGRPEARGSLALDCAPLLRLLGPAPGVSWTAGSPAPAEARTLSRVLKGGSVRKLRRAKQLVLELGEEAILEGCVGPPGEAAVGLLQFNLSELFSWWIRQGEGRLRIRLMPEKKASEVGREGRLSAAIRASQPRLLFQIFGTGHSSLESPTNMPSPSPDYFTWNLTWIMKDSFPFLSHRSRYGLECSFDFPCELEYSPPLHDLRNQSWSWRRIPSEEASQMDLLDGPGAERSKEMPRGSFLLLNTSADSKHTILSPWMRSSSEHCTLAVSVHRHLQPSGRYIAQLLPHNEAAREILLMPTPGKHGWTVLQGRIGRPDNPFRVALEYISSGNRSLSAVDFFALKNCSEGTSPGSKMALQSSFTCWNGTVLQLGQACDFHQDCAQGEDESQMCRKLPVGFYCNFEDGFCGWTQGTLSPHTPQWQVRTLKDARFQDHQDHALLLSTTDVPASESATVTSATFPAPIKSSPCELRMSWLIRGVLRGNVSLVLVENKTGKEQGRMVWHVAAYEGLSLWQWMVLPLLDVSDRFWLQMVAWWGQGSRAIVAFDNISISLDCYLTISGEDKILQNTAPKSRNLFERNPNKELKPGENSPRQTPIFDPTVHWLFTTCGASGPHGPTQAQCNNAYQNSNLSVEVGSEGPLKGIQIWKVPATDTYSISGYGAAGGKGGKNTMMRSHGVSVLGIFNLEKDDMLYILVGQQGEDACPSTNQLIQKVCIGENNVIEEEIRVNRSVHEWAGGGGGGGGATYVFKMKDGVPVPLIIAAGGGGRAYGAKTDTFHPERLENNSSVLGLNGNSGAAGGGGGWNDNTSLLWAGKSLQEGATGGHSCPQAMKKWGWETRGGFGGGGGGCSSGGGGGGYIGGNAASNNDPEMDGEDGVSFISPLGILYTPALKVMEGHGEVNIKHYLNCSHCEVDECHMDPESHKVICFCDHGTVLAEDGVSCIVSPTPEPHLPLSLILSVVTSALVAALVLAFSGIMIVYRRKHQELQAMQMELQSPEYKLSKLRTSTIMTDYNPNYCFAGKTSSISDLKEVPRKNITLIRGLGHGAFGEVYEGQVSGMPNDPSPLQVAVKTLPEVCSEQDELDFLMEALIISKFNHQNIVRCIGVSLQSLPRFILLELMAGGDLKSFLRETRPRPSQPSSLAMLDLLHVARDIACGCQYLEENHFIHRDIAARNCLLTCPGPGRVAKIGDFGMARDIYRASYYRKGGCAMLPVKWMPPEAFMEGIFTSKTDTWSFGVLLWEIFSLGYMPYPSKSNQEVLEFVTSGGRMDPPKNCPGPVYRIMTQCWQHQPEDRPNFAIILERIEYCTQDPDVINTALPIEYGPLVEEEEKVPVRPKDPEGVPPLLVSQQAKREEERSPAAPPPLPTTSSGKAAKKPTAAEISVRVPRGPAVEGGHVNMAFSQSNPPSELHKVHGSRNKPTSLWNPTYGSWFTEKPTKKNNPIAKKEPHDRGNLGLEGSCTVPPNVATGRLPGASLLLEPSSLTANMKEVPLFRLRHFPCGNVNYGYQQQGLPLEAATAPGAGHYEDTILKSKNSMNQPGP

[11] = AUC (0 to infinity) in BALB/c mouse at 20 mg/kg, po; type: ADME, organism-based; parameters: time infinity, dose 20 mg/kg, route oral; conditions: plasma
[12] = system: Mus musculus; experiment: Toxicity in human GTL16 cells xenografted nu/nu mouse model assessed as change in body weight at 20 mg/kg, po qd for 14 days; type: organism-based; parameters: dose 20 mg/kg, route oral; conditions: in vivo, 336 h
[13] = animal or person; conditions: Homo sapiens, GTL 16, po, 336 h, read-out: TGI; remark: listed apart in the source
Description: Antitumor activity against human GTL16 cells xenografted in nu/nu mouse assessed as tumor growth inhibition at 20 mg/kg, po qd for 14 days

[14] = Oral bioavailability in BALB/c mouse at 20 mg/kg; type: ADME, organism-based; conditions: in vivo
[15] = cells; conditions: Homo sapiens, NCI-H441, 48 h
Description: Antiproliferative activity against human H441 cells after 48 hrs by MTT assay

[16] = Cmax in BALB/c mouse at 5 mg/kg, iv; type: ADME, organism-based; parameters: dose 5 mg/kg, route intravenous; conditions: in vivo

Sequence of Hepatocyte growth factor receptor (P08581 whole entry): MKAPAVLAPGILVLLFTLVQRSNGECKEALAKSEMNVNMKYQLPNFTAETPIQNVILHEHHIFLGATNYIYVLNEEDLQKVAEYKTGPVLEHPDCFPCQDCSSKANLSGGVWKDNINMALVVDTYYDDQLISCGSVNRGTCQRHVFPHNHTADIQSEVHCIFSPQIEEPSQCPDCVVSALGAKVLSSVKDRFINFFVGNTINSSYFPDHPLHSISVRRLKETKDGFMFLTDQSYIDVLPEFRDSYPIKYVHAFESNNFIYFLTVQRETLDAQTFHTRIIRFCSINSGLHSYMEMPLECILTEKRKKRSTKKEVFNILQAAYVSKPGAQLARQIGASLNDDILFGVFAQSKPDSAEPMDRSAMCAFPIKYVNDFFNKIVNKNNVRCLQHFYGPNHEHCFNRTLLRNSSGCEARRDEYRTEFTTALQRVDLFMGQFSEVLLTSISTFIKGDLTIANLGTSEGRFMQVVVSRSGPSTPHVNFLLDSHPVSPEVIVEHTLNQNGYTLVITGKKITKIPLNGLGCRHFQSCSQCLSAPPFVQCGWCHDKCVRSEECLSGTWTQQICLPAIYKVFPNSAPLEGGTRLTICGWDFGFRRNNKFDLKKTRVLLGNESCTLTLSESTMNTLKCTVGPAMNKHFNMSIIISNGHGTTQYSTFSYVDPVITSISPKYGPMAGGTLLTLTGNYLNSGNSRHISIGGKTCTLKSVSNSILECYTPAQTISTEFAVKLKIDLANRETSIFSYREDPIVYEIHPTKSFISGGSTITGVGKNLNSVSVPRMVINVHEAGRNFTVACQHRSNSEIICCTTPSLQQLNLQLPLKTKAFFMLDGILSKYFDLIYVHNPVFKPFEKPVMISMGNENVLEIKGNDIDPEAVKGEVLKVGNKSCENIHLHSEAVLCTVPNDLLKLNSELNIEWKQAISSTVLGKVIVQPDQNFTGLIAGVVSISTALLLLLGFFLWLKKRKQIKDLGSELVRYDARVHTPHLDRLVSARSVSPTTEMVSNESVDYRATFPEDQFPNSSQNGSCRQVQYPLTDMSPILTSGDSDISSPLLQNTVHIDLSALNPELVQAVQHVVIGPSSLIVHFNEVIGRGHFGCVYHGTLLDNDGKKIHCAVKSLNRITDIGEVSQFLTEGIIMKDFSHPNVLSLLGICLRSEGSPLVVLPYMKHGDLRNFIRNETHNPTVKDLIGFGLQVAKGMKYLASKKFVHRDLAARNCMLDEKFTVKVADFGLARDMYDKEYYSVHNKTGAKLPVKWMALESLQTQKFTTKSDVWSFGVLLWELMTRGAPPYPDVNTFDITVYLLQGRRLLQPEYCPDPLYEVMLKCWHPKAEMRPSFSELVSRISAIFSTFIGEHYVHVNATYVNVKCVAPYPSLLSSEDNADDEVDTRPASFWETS

Structure (SMILES)	IC50 [1]	Cmax [2]	IC50 [3]	AUC(0-inf) [4]	IC50 [5]	IC50 [6]	IC50 [7]	F [8]	inhibition in vivo at 40 mg/kg [9]	IC50 [10]	AUC(0-inf) [11]	Activity [12]	inhibition in vivo at 20 mg/kg [13]	bioavailability [14]	IC50 [15]	Cmax [16]
CN1CCC2(CC1)C(=O)Nc1ccc(-c3cnc(N)c(OCc4c(Cl)ccc(F)c4Cl)c3)cc12	> 10 µM	–	–	–	–	–	–	–	–	–	–	–	–	–	–	–
C[C@@H](Oc1cc(-c2ccc3c(c2)NC(=O)C32CCN(C)CC2)cnc1N)c1c(Cl)ccc(F)c1Cl	–	1450 nM	0.039 µM	1230 ng·h/mL	> 10 µM	0.02 µM	1.58 µM	100%	87%	< 0.0005 µM	2350 ng·h/mL	Non-toxic	52%	48%	2.82 µM	1360 nM
